Test results: ChEMBL document CHEMBL6177961, “Structure-Based Analysis of Semisynthetic Anti-TB Rufomycin Analogues” (J Nat Prod, 2025)
≈ marks a conversion by molar mass, not a printed value.

What was measured:
[1] = Cytotoxicity against African green monkey Vero cells; format: toxicity, cell-based; conditions: African green monkey (Chlorocebus sabaeus)
[2] = Binding affinity to N-terminal Mycobacterium tuberculosis ClpC1 assessed as dissociation constant by SPR analysis
[3] = Binding affinity to full length Mycobacterium tuberculosis ClpC1 assessed as dissociation constant by SPR analysis
[4] = Selectivity index, ratio of IC50 for cytotoxicity against African green monkey Vero cells to MIC for antimycobacterial activity against Mycobacterium tuberculosis H37Rv ATCC 27294; format: toxicity, cell-based; conditions: read-out: Selectivity Index
[5] = tested on: Mycobacterium tuberculosis; experiment: Antimycobacterial activity against Mycobacterium tuberculosis H37Rv ATCC 27294 assessed as reduction in bacterial growth by microplate alamar blue assay; format: functional
[6] = tested on: Mycobacteroides abscessus; experiment: Antimycobacterial activity against Mycobacterium abscessus ATCC 19977 assessed as reduction in bacterial growth by microplate Alamar blue assay; format: functional
[7] = tested on: Mycobacterium avium; experiment: Antimycobacterial activity against Mycobacterium avium assessed as reduction in bacterial growth; format: functional

Compound: C/C=C/C[C@@H]1NC(=O)[C@H](CC(C)C)N2C=C(C)C[C@@H](C2=O)N(C)C(=O)[C@H](C)NC(=O)[C@H](Cc2ccc(O)c([N+](=O)[O-])c2)NC(=O)[C@H](CC(C)C)N(C)C(=O)[C@H](Cc2cn(C(C)(C)[C@H]3CO3)c3ccccc23)NC1=O
- IC50 [1]: > 100000 nM
- Kd [2]: 50 nM
- Kd [3]: 60 nM
- selectivity ratio [4]: > 33000
- MIC [5]: 0.003 µM (≈ 0.00307 µg/mL)
- MIC [6]: 0.58 µM (≈ 0.594 µg/mL)
- MIC [7]: 4.1 µM (≈ 4.2 µg/mL)

Compound: C/C=C/C[C@@H]1NC(=O)[C@H](CC(C)C)N2C(=O)[C@H](CC(C)[C@H]2OC)N(C)C(=O)[C@H](C)NC(=O)[C@H](Cc2ccc(O)c([N+](=O)[O-])c2)NC(=O)[C@H](CC(C)C)N(C)C(=O)[C@H](Cc2cn(C(C)(C)[C@H](O)COC)c3ccccc23)NC1=O (stereo not given in full)
- IC50 [1]: > 100000 nM
- Kd [2]: 75 nM
- Kd [3]: 72 nM
- selectivity ratio [4]: > 13000
- MIC [5]: 0.008 µM (≈ 0.00871 µg/mL)
- MIC [6]: 0.11 µM (≈ 0.12 µg/mL)
- MIC [7]: 0.4 µM (≈ 0.435 µg/mL)

Compound: C/C=C/C[C@@H]1NC(=O)[C@H](CC(C)C)N2C(=O)[C@H](C[C@@H](C)[C@H]2OCCCC)N(C)C(=O)[C@H](C)NC(=O)[C@H](Cc2ccc(O)c([N+](=O)[O-])c2)NC(=O)[C@H](CC(C)C)N(C)C(=O)[C@H](Cc2cn(C(C)(C)[C@H](O)CCl)c3ccccc23)NC1=O
- IC50 [1]: > 100000 nM
- Kd [2]: 210 nM
- Kd [3]: 170 nM
- MIC [5]: 4.3 µM (≈ 4.88 µg/mL)
- MIC [6]: > 10 µM

Compound: C/C=C/C[C@@H]1NC(=O)[C@H](CC(C)C)N2C(=O)[C@H](CC(C)[C@H]2OC)N(C)C(=O)[C@H](C)NC(=O)[C@H](Cc2ccc(OC)c([N+](=O)[O-])c2)NC(=O)[C@H](CC(C)C)N(C)C(=O)[C@H](Cc2cn(C(C)(C)[C@H]3CO3)c3ccccc23)N(C)C1=O (stereo not given in full)
- IC50 [1]: 90000 nM
- selectivity ratio [4]: 1400
- MIC [5]: 0.065 µM (≈ 0.0705 µg/mL)
- MIC [6]: 2.1 µM (≈ 2.28 µg/mL)
- MIC [7]: 9 µM (≈ 9.76 µg/mL)

Compound: C/C=C/C[C@@H]1NC(=O)[C@H](CC(C)C)N2C=C(C)C[C@@H](C2=O)N(C)C(=O)[C@H](C)NC(=O)[C@H](Cc2ccc3ocnc3c2)NC(=O)[C@H](CC(C)C)N(C)C(=O)[C@H](Cc2cn(C(C)(C)[C@H](O)CCl)c3ccccc23)NC1=O
- IC50 [1]: > 100000 nM
- Kd [2]: 300 nM
- Kd [3]: 430 nM
- selectivity ratio [4]: > 830
- MIC [5]: 0.12 µM (≈ 0.125 µg/mL)
- MIC [6]: 2.4 µM (≈ 2.5 µg/mL)
- MIC [7]: > 10 µM

Compound: C/C=C/C[C@@H]1NC(=O)[C@H](CC(C)C)N2C=C(C)C[C@@H](C2=O)N(C)C(=O)[C@H](C)NC(=O)[C@H](Cc2ccc3oc(=O)[nH]c3c2)NC(=O)[C@H](CC(C)C)N(C)C(=O)[C@H](Cc2cn(C(C)(C)[C@H](O)CCl)c3ccccc23)NC1=O
- IC50 [1]: > 100000 nM
- Kd [2]: 430 nM
- Kd [3]: 510 nM
- selectivity ratio [4]: > 830
- MIC [5]: 0.12 µM (≈ 0.127 µg/mL)
- MIC [6]: 2.3 µM (≈ 2.43 µg/mL)
- MIC [7]: > 10 µM

Compound: C/C=C/C[C@@H]1NC(=O)[C@H](CC(C)C)N2C(=O)[C@H](C[C@@H](C)[C@H]2OCC)N(C)C(=O)[C@H](C)NC(=O)[C@H](Cc2ccc(O)c([N+](=O)[O-])c2)NC(=O)[C@H](CC(C)C)N(C)C(=O)[C@H](Cc2cn(C(C)(C)[C@H](O)CCl)c3ccccc23)NC1=O
- IC50 [1]: > 10000 nM
- Kd [2]: 120 nM
- Kd [3]: 140 nM
- selectivity ratio [4]: > 42
- MIC [5]: 0.24 µM (≈ 0.266 µg/mL)
- MIC [6]: 1.1 µM (≈ 1.22 µg/mL)
- MIC [7]: > 10 µM

Compound: C/C=C/C[C@@H]1NC(=O)[C@H](CC(C)C)N2C=C(C)C[C@@H](C2=O)N(C)C(=O)[C@H](C)NC(=O)[C@H](Cc2ccc(O)c([N+](=O)[O-])c2)NC(=O)[C@H](CC(C)C)N(C)C(=O)[C@H](Cc2cn(C(C)(C)[C@H](O)CBr)c3ccccc23)NC1=O
- IC50 [1]: > 100000 nM
- Kd [2]: 260 nM
- Kd [3]: 350 nM
- selectivity ratio [4]: > 32000
- MIC [5]: 0.003 µM (≈ 0.00332 µg/mL)
- MIC [6]: 0.57 µM (≈ 0.63 µg/mL)
- MIC [7]: 1.1 µM (≈ 1.22 µg/mL)

Compound: C/C=C/C[C@@H]1NC(=O)[C@H](CC(C)C)N2C=C(C)C[C@@H](C2=O)N(C)C(=O)[C@H](C)NC(=O)[C@H](Cc2ccc(OC(=O)c3ccccc3)c([N+](=O)[O-])c2)NC(=O)[C@H](CC(C)C)N(C)C(=O)[C@H](Cc2cn(C(C)(C)[C@@H](CCl)OC(=O)c3ccccc3)c3ccccc23)NC1=O
- IC50 [1]: > 100000 nM
- Kd [2]: 1400 nM
- Kd [3]: 1100 nM
- selectivity ratio [4]: > 220
- MIC [5]: 0.45 µM (≈ 0.571 µg/mL)
- MIC [6]: > 10 µM
- MIC [7]: > 10 µM

Compound: C/C=C/C[C@@H]1NC(=O)[C@H](CC(C)C)N2C(=O)[C@H](C[C@H](C)[C@@H]2OCCCC)N(C)C(=O)[C@H](C)NC(=O)[C@H](Cc2ccc(O)c([N+](=O)[O-])c2)NC(=O)[C@H](CC(C)C)N(C)C(=O)[C@H](Cc2cn(C(C)(C)[C@H](O)CCl)c3ccccc23)NC1=O
- IC50 [1]: > 100000 nM
- Kd [2]: 27 nM
- Kd [3]: 29 nM
- selectivity ratio [4]: > 2100
- MIC [5]: 0.048 µM (≈ 0.0545 µg/mL)
- MIC [6]: 4.2 µM (≈ 4.77 µg/mL)

Compound: C/C=C/C[C@@H]1NC(=O)[C@H](CC(C)C)N2C=C(C)C[C@@H](C2=O)N(C)C(=O)[C@H](C)NC(=O)[C@H](Cc2ccc3c(c2)N=C(C)CC(C)(C)O3)NC(=O)[C@H](CC(C)C)N(C)C(=O)[C@H](Cc2cn(C(C)(C)[C@H](O)CCl)c3ccccc23)NC1=O
- IC50 [1]: > 100000 nM
- selectivity ratio [4]: > 130
- MIC [5]: 0.79 µM (≈ 0.878 µg/mL)
- MIC [6]: 4.5 µM (≈ 5 µg/mL)
- MIC [7]: > 10 µM

Compound: C/C=C/C[C@@H]1NC(=O)[C@H](CC(C)C)N2C(=O)[C@H](C[C@@H](C)[C@@H]2OCCCC)N(C)C(=O)[C@H](C)NC(=O)[C@H](Cc2ccc(O)c([N+](=O)[O-])c2)NC(=O)[C@H](CC(C)C)N(C)C(=O)[C@H](Cc2cn(C(C)(C)[C@H](O)CCl)c3ccccc23)NC1=O
- IC50 [1]: 95000 nM
- Kd [2]: 600 nM
- Kd [3]: 720 nM
- selectivity ratio [4]: 120
- MIC [5]: 0.77 µM (≈ 0.874 µg/mL)
- MIC [6]: 9.4 µM (≈ 10.7 µg/mL)
- MIC [7]: > 10 µM

Compound: C/C=C/C[C@@H]1NC(=O)[C@H](CC(C)C)N2C(=O)[C@H](CC(C)[C@H]2OC(C)=O)N(C)C(=O)[C@H](C)NC(=O)[C@H](Cc2ccc(OC(C)=O)c([N+](=O)[O-])c2)NC(=O)[C@H](CC(C)C)N(C)C(=O)[C@H](Cc2cn(C(C)(C)[C@H]3CO3)c3ccccc23)NC1=O (stereo not given in full)
- IC50 [1]: > 100000 nM
- Kd [3]: 16 nM
- selectivity ratio [4]: > 23000
- MIC [5]: 0.004 µM (≈ 0.00451 µg/mL)
- MIC [6]: 0.27 µM (≈ 0.304 µg/mL)
- MIC [7]: 0.96 µM (≈ 1.08 µg/mL)

Compound: C/C=C/C[C@@H]1NC(=O)[C@H](CC(C)C)N2C=C(C)C[C@@H](C2=O)N(C)C(=O)[C@H](C)NC(=O)[C@H](Cc2ccc(O)c(NC(=O)CCl)c2)NC(=O)[C@H](CC(C)C)N(C)C(=O)[C@H](Cc2cn(C(C)(C)[C@H](O)CCl)c3ccccc23)NC1=O
- IC50 [1]: > 100000 nM
- Kd [2]: 220 nM
- Kd [3]: 310 nM
- selectivity ratio [4]: > 1000
- MIC [5]: 0.098 µM (≈ 0.109 µg/mL)
- MIC [6]: 2.2 µM (≈ 2.44 µg/mL)
- MIC [7]: > 10 µM

Compound: C/C=C/C[C@@H]1NC(=O)[C@H](CC(C)C)N2C(=O)[C@H](CC(C)[C@H]2OC)N(C)C(=O)[C@H](C)NC(=O)[C@H](Cc2ccc(OC)c([N+](=O)[O-])c2)NC(=O)[C@H](CC(C)C)N(C)C(=O)[C@H](Cc2cn(C(C)(C)[C@H]3CO3)c3ccccc23)NC1=O (stereo not given in full)
- IC50 [1]: 100000 nM
- Kd [3]: 64 nM
- selectivity ratio [4]: 17000
- MIC [5]: 0.006 µM (≈ 0.00642 µg/mL)
- MIC [6]: 0.53 µM (≈ 0.567 µg/mL)
- MIC [7]: 1.2 µM (≈ 1.28 µg/mL)

Compound: C/C=C/C[C@@H]1NC(=O)[C@H](CC(C)C)N2C(=O)[C@H](C[C@H](C)[C@H]2OCC)N(C)C(=O)[C@H](C)NC(=O)[C@H](Cc2ccc(O)c([N+](=O)[O-])c2)NC(=O)[C@H](CC(C)C)N(C)C(=O)[C@H](Cc2cn(C(C)(C)[C@H](O)CCl)c3ccccc23)NC1=O
- IC50 [1]: > 100000 nM
- Kd [2]: 11 nM
- Kd [3]: 87 nM
- selectivity ratio [4]: > 19000
- MIC [5]: 0.005 µM (≈ 0.00553 µg/mL)
- MIC [6]: 0.49 µM (≈ 0.542 µg/mL)
- MIC [7]: 2.2 µM (≈ 2.43 µg/mL)

Compound: C/C=C/C[C@@H]1NC(=O)[C@H](CC(C)C)N2C(=O)[C@H](CC(C)[C@H]2OC)N(C)C(=O)[C@H](C)NC(=O)[C@H](Cc2ccc(O)c([N+](=O)[O-])c2)NC(=O)[C@H](CC(C)C)N(C)C(=O)[C@H](Cc2cn(C(C)(C)[C@H](O)CCl)c3ccccc23)NC1=O (stereo not given in full)
- IC50 [1]: > 100000 nM
- Kd [2]: 66 nM
- Kd [3]: 96 nM
- selectivity ratio [4]: > 20000
- MIC [5]: 0.005 µM (≈ 0.00546 µg/mL)
- MIC [6]: 0.25 µM (≈ 0.273 µg/mL)
- MIC [7]: 0.4 µM (≈ 0.437 µg/mL)

Compound: C/C=C/C[C@@H]1NC(=O)[C@H](CC(C)C)N2C(=O)[C@H](CC(C)[C@H]2O)N(C)C(=O)[C@H](C)NC(=O)[C@H](Cc2ccc(O)c([N+](=O)[O-])c2)NC(=O)[C@H](CC(C)C)N(C)C(=O)[C@H](Cc2cn(C(C)(C)[C@H]3CO3)c3ccccc23)NC1=O (mixture of isomers)
- Kd [2]: 83 nM
- Kd [3]: 110 nM
- MIC [5]: 0.019 µM
- MIC [6]: 0.29 µM
- MIC [7]: 1.2 µM
